Assay results published in US20260335398A1, “METHODS FOR TREATING PANCREATIC CANCER WITH A COMBINATION OF DES-METHYL PATEAMINE A AND A CLASS I HDAC INHIBITOR” (Baylor University, priority 2023, published 2026).

Key:
[1] = tested on: H3K9ac; assay: Immunoblot of H3K9ac protein levels (FIGS. 5A-5C, 9C); assay type: cell-based; details: romidepsin 15 nM 6 h; with or without DMPatA 2 nM
Procedure: FIGS. 5A-5C are images of immunoblots of protein levels from whole cell extracts of MIA PaCa-2 cell line following treatment with representative combinations Class 1 HDAC inhibitors and DMPatA, DMPatA alone, and HDAC inhibitor alone. FIG. 5A compares immunoblots of H3K9ac (top panel) and GAPDH (bottom panel) protein levels from whole cell extracts of MIA PaCa-2 cells following treatment with the combination of romidepsin and DMPatA and single drugs. Romidepsin treatment was for 6 hours. FIG. 5B compares immunoblots of H3K9ac protein levels from whole cell extracts of MIA PaCa-2 and KLM cells untreated or following treatment with the combination of entinostat and DMPatA and single drugs. Treatments were for various timepoints ranging from 6 to 24 hours. […]
This apparent hypertranscription observed with the combination, was confirmed by the increase in nascent RNA output above the level of normal cells, following treatment for a total of 18 hours (i.e., 6-hour romidepsin followed by 12-hour washout with or without 2 nM DMPatA), quantified using incorporation of the modified RNA precursor 5-EU. […] Because HDAC inhibitors cause histone hyperacetylation and having observed the increase in gene expression following treatment with the combination, the impact of the combination on histone acetylation was assessed. […]

[2] = patients, 4-hour infusion; cited from earlier work
[3] = tested on: SNRPN locus; assay: DRIP-qPCR R-loop accumulation at negative locus SNRPN (FIG. 10A); assay type: cell-based; details: MIA PaCa-2, 6+3 hours
Procedure: FIG. 10A illustrates the fold increase in the percent of input values in DRIP-qPCR for the VGF, HBA2, and SNRPN loci in MIA PaCa-2 cells treated with or without the combination or single agents. Genomic DNA was treated in vitro with or without RNaseH1 before immunoprecipitation using S9.6 antibody. Treatment was for 6+3 hours (i.e., 6-hour romidepsin followed by 3-hour washout with 2 nM DMPatA (combo) or without). Statistical significance was determined by 3-way ANOVA, ***p value<0.001. This experiment confirms the formation of R-loops at the investigated gene loci.
Romidepsin-induced histone hyperacetylation leads to the accumulation of R-loops that can increase genome instability. Because treatment of cells with the combination increased global transcription and led to persistence of histone hyperacetylation, it was postulated the treatment could similarly enhance the formation of R-loops and contribute to cell death. R-loop accumulation was further confirmed using DRIP-qPCR. […]
DRIP assay was performed according to the method previously described (Sanz L A, Chédin F. High-resolution, strand-specific R-loop mapping via S9. 6-based DNA-RNA immunoprecipitation and high-throughput sequencing. Nature protocols. 2019; 14(6):1734). […] Quantitative PCR was performed at the R-loop positive loci VGF and HBA2 genes and R-loop negative locus SNRPN gene with the primers listed in Table 1.

[4] = tested on: p-RPA; assay: Immunoblot of phospho-RPA2 (FIG. 11A); assay type: cell-based; details: total 24 h (romidepsin 6 h + 18 h with/without 2 nM DMPatA)
Procedure: FIG. 11A compares immunoblots of p-RPA and p-CHK1 protein levels from whole cell extracts following treatment with the combination and romidepsin for a total of 24 h (i.e., romidepsin treatment was for 6 h followed by 18-hour incubation with 2 nM DMPatA (combo) or without (Romi alone)).
Having observed R-loop accumulation following treatment with the combination, it was hypothesized that hypertranscription, persistent hyperacetylation, and R-loop accumulation could increase the incidence of transcription replication conflicts, genome instability, and DNA damage and contribute to cell death. […]
Western blotting was carried out as previously described (Luchenko V L, Litman T, Chakraborty A R, et al. 65. Membranes were probed with primary antibodies: Phospho-Histone H2A.X (Ser139) (1:1000, Millipore Sigma #05-636), GAPDH (1:10000, Abcam #ab8245), c-Myc (1:1000, Abcam #ab32072), β-Actin (1:1000, Cell Signaling Technology (CST), #8457), Phospho-RPA32/RPA2 (Ser33) (1:1000, Cell Signaling Technology #10148), Phospho-Chk1 (Ser345) (1:1000, CST #2341), and secondary antibodies IRDye® 680RD Goat anti-Mouse and IRDye® 800CW Goat anti-Rabbit (both from LI-COR Biosciences). Signal quantification was performed using the Odyssey CLx imaging system (LI-COR Biosciences), capturing various exposures within the linear range with ImageStudio software V3.1 (LI-COR Biosciences).

## C/C=C1\NC(=O)[C@H]2CSSCC/C=C/[C@H](CC(=O)N[C@H](C(C)C)C(=O)N2)OC(=O)[C@H](C(C)C)NC1=O [romidepsin]
[1]
  H3K9 acetylation: only a small effect
[2]
  half-life: approximately 3.5 hour
[3]
  R-loop accumulation at SNRPN: no accumulation of R-loops
[4]
  phospho-RPA2: Accumulation
